# Assay: Nile Red probing of the hydrophobic core
# Type: physicochemical
# Conditions: Nile Red 200 nM, excitation 540 nm, water
# Procedure: In contrast to the out-stretched configuration of a polymer brush, the folded monomolecular nanoparticle is expected to bear a hydrophobic core (Figure 1), similar to that of micelles made of surfactants. To evidence the presence of this core, we used a solvatochromic dye Nile Red, which is a common tool for identifying low polar environment of micelles^81 and single-chain polymeric NPs. Fluorescence spectra of Nile Red at fixed concentration (200 nM) were recorded with addition of different concentrations of fully PEGylated PMAO polymer with 5 mol% BDP1 (Figure12. A drastic increase in the fluorescence intensity of Nile Red was observed accompanied by ∼30 nm blue shift of the emission band (Figure12A,B,D. The increase in the intensity stabilized above 200 nM polymer concentration (Figure12C, which corresponded well to 1/1 dye/polymer molar ratio. Below this concentration, multiple Nile Red molecules per particle can be present, which leads to dye self-quenching, explaining lower intensity at lower polymer concentrations. On the other hand, the blue shifted emission of Nile Red at ∼630 nm indicates the presence of a hydrophobic binding site in these NPs. The NPs were compared with micelles of Tween 80, having a hydrophobic core formed by hydrocarbon chains. […]
smiles,measurement,value
CCCCCCCC/C=C\CCCCCCCC(=O)OCCOCC(OCCO)C1OCC(OCCO)C1OCCO (stereo not shown) [Tween 80],Emission of Nile Red,~640 nm

# From patent EP3967331A1, “ULTRA-SMALL FLUORESCENT ORGANIC NANOPARTICLES” (Centre national de la recherche scientifique, priority 2020, dated 2022)
